The results in this text go back to ChEMBL document CHEMBL1201862, “PubChem BioAssay data set” (2004).

The target of one experiment is SUMO-activating enzyme (Homo sapiens, UniProt Q9UBT2). Put plainly: blockers of UBC9-mediated SUMO conjugation – biochemical, AlphaScreen, SUMOylation inhibitor project, confirmation (AID 2018). It is filed as functional. For orientation: Bead proximity is the source of the signal in Alpha formats.
The target in experiment [1] is T1, Sentrin-specific protease 7 (Homo sapiens, UniProt Q9BQF6).
T1 sequence (Q9BQF6 whole entry): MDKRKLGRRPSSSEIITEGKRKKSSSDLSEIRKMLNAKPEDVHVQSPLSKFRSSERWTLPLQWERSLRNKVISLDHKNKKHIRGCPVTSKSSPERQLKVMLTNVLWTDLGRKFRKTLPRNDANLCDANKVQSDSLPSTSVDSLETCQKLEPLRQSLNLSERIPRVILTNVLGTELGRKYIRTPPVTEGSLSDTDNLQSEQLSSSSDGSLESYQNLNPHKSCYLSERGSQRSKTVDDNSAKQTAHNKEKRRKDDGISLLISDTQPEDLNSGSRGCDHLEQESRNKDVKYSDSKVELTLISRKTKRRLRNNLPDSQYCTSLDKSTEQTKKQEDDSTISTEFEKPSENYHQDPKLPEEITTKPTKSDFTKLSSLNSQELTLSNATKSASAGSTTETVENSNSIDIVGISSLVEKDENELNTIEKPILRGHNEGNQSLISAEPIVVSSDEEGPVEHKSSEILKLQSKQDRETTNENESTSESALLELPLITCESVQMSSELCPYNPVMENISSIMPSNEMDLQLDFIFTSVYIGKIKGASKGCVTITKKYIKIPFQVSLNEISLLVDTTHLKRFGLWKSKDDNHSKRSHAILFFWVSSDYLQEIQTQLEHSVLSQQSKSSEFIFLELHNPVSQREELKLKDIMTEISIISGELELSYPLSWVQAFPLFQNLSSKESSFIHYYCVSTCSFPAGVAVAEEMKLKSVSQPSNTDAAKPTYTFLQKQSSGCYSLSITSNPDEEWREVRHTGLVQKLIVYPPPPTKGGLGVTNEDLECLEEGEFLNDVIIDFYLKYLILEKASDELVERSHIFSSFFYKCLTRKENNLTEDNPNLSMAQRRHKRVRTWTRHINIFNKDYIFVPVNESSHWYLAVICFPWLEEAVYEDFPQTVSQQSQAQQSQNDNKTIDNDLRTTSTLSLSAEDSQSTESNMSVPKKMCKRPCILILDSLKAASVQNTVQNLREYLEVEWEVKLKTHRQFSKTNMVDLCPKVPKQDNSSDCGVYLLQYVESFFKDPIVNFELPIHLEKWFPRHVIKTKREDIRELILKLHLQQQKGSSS
Put plainly: inhibition of human SENP7 cleavage activity – biochemical, luminescence, SAR follow-up (AID 504497). Type of experiment: functional.

The target in the next experiment is T2, Insulin-degrading enzyme (Homo sapiens, UniProt P14735).
T2 sequence (P14735 whole entry): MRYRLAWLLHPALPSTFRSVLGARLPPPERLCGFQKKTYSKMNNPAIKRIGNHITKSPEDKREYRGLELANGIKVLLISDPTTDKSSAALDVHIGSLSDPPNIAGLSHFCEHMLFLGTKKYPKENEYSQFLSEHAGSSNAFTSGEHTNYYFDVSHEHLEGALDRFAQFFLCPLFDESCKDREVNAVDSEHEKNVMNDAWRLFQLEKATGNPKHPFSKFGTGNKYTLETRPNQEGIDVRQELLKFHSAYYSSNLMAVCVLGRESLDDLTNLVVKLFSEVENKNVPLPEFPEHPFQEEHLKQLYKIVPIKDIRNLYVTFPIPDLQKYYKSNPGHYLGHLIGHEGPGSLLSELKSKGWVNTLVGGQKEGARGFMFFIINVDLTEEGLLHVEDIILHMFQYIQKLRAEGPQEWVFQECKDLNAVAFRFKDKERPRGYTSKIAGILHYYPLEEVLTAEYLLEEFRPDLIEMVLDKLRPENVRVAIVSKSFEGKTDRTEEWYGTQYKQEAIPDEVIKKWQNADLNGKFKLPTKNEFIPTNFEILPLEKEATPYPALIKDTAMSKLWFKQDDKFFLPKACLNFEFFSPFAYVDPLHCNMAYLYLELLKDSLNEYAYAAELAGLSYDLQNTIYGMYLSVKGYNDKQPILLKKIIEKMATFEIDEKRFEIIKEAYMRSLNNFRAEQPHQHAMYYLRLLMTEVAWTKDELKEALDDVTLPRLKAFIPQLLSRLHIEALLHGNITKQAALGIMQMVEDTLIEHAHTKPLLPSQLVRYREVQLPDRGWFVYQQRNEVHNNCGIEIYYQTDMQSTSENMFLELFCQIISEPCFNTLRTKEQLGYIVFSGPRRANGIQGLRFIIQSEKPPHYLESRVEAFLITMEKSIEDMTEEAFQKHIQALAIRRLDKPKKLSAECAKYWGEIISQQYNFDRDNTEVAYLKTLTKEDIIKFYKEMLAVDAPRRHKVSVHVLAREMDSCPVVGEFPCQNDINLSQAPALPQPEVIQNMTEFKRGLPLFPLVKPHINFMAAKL
Put plainly: cellular IDE activation of Abeta substrate cleavage – fluorescence polarization, HEK cells, dose response (AID 588439). It is filed as functional, cell-based. (Polarisation of emitted light reports the rotation of a fluorescent probe.)

For experiment [2], the target named is Tyrosine-protein kinase Lck (Homo sapiens, UniProt P06239). It is filed as functional.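 Also: lck was assayed as one member of a kinase panel.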
Experiment [3] has as its target Tyrosine-protein kinase receptor TYRO3 (Homo sapiens, UniProt Q06418). Type of experiment: functional.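 Also: TYRO3 value obtained as one member of a kinome-wide profiling panel.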
In experiment [4] the target is Glycogen synthase kinase-3 alpha (Homo sapiens, UniProt P49840). It is filed as functional.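 Also: GSK3A result taken from a broad kinome-wide kinase panel.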
The target in experiment [5] is Dual specificity mitogen-activated protein kinase kinase 1 (Homo sapiens, UniProt Q02750). Put plainly: Navigating the Kinome. Panel member name: MAP2K1. It is filed as functional.
Experiment [6] concerns the target Serine/threonine-protein kinase D3 (Homo sapiens, UniProt O94806). It is filed as functional.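 Also: determined within a kinase panel screen, with PRKCN as the panel member.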
Experiment [7] has as its target 5'-AMP-activated protein kinase catalytic subunit alpha-1 (Homo sapiens, UniProt Q13131). It is filed as functional.

Active and inactive are the calls of the source.

Sequence of Tyrosine-protein kinase receptor TYRO3 (Q06418 whole entry): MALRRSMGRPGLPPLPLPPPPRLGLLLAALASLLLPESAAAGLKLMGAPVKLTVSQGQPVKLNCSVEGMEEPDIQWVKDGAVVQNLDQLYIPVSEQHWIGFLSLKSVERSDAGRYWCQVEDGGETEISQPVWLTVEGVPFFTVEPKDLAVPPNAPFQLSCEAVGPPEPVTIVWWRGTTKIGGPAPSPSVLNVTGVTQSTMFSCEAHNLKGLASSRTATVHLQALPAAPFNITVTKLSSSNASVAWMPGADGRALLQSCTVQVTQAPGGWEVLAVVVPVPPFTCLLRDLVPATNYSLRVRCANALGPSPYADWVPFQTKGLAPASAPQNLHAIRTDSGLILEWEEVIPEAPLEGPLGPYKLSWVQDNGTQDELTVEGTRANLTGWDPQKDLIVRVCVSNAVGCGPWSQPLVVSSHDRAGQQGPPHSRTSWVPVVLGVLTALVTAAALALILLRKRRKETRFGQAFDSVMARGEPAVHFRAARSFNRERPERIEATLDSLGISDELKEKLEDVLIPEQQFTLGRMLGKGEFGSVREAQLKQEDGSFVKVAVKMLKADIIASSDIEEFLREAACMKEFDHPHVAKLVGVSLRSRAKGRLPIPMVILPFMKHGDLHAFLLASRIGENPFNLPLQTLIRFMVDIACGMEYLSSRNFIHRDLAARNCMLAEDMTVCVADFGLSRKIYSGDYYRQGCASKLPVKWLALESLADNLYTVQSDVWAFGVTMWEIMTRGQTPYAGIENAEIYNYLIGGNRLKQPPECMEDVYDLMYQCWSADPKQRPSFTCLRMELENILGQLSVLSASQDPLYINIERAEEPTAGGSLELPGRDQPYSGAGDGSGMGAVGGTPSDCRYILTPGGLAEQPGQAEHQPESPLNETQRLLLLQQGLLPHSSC
Sequence of Serine/threonine-protein kinase D3 (O94806 whole entry): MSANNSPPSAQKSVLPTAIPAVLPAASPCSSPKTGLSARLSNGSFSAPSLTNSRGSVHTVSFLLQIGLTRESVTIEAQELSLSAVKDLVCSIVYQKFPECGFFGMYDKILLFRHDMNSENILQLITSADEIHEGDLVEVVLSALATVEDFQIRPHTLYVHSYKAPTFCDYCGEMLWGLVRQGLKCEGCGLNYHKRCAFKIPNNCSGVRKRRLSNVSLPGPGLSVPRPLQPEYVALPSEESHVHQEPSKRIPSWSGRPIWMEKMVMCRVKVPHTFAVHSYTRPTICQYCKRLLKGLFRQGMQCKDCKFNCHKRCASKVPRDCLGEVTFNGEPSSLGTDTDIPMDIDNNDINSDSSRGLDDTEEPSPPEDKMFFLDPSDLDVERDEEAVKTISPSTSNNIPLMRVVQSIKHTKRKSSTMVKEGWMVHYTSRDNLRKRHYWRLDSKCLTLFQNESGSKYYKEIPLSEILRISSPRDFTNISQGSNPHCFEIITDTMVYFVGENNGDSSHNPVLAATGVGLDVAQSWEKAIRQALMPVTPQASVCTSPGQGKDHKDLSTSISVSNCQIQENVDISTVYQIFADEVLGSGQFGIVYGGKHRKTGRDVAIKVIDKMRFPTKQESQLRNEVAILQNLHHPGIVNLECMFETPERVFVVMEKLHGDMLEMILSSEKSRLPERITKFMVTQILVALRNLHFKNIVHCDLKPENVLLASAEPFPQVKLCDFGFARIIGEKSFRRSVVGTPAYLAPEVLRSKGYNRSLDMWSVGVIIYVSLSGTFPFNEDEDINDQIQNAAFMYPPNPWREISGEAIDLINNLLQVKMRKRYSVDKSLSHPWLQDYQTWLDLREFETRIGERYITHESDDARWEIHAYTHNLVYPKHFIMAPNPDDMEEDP
Sequence of Dual specificity mitogen-activated protein kinase kinase 1 (Q02750 whole entry): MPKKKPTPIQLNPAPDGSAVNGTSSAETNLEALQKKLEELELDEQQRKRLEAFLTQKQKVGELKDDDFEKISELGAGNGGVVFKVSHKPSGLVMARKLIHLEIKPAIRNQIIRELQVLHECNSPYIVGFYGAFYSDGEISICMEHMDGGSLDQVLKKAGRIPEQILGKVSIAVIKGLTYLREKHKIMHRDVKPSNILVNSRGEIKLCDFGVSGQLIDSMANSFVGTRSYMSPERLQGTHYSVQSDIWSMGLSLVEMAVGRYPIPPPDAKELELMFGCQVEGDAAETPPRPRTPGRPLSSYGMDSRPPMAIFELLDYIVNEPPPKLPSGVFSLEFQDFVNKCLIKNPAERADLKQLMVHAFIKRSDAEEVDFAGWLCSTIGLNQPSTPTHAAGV
Sequence of 5'-AMP-activated protein kinase catalytic subunit alpha-1 (Q13131 whole entry): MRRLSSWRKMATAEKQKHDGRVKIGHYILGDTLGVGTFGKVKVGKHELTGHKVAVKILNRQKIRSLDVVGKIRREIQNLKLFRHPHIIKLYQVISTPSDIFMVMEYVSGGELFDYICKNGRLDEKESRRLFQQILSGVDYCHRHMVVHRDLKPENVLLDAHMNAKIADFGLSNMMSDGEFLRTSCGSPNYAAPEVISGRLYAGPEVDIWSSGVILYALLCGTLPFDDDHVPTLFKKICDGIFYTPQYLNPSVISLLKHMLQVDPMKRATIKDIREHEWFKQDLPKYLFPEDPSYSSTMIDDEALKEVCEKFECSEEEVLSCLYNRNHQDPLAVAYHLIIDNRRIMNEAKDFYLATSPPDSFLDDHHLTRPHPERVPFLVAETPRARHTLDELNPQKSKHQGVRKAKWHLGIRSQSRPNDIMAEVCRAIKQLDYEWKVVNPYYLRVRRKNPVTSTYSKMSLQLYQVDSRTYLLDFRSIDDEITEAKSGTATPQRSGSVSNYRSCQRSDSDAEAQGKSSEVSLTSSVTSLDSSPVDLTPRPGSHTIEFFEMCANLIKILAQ
Sequence of SUMO-activating enzyme (Q9UBE0 whole entry): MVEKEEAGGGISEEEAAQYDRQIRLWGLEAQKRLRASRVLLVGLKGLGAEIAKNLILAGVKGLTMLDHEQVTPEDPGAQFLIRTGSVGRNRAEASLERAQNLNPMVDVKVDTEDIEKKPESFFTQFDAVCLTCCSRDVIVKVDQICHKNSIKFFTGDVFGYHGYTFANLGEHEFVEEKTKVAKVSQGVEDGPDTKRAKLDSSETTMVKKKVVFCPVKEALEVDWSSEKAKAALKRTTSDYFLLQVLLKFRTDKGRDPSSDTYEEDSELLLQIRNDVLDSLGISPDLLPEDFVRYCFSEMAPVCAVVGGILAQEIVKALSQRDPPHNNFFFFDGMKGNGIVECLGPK
Sequence of SUMO-activating enzyme (Q9UBT2 whole entry): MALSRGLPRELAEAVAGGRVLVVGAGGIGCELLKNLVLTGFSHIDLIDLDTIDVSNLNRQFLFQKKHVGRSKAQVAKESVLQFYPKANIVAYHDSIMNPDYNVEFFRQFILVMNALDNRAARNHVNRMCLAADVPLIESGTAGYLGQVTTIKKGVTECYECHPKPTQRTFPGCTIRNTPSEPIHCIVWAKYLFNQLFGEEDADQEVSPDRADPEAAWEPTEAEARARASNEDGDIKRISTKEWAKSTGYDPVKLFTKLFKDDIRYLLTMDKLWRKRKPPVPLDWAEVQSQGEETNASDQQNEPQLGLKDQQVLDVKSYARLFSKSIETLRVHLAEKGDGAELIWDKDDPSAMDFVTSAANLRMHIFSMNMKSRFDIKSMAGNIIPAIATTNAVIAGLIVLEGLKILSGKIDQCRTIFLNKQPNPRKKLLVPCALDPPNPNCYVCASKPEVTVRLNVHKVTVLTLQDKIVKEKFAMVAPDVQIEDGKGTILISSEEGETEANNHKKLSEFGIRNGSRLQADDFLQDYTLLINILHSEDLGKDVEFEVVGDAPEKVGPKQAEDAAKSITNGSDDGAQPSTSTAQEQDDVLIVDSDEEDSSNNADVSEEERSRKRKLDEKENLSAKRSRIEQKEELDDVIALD
Sequence of Glycogen synthase kinase-3 alpha (P49840 whole entry): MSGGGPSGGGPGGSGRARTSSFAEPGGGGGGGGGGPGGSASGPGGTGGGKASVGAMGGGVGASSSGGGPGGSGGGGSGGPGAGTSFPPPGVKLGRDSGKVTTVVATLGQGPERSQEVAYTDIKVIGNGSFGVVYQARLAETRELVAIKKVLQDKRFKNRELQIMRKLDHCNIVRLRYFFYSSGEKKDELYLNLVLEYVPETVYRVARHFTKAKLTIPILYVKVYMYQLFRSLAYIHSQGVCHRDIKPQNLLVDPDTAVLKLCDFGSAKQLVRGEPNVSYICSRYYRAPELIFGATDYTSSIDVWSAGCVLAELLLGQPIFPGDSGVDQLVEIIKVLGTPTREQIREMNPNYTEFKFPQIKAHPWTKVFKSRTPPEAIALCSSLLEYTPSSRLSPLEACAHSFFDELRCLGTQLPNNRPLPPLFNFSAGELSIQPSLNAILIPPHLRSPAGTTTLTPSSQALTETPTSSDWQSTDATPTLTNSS
Sequence of Tyrosine-protein kinase Lck (P06239 whole entry): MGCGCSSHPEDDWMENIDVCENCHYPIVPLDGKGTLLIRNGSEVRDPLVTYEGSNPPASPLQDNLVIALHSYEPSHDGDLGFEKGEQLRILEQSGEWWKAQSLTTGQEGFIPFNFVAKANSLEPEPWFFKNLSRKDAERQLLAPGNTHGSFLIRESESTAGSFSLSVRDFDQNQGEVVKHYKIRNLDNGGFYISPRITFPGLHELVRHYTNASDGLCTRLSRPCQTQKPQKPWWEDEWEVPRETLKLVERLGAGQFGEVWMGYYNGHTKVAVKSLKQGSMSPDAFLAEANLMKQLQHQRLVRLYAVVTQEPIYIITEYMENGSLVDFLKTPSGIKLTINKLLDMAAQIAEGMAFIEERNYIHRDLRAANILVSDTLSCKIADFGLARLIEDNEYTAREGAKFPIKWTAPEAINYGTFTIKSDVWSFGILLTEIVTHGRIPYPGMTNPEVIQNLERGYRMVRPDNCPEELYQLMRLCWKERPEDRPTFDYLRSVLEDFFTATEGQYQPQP

In general, IC50 refers to the concentration that gives 50% inhibition. Regarding `O=C(NNc1cc(N2CCCC2)nc(N2CCCC2)n1)c1ccc([N+](=O)[O-])cc1`, the IC50 on SUMO-activating enzyme is 1.82 µM (active); in experiment [1] it was 2.43 µM (active).
By EC50 is commonly meant the concentration that produces a half-maximal response. With `O=S(=O)(O)c1cccc2c(N=Nc3ccc(O)c4ncccc34)cccc12`, on Insulin-degrading enzyme, the EC50 is 8.8 µM (active).
By Ki is commonly meant the dissociation constant of the complex between target and ligand, obtained from inhibition or displacement. Turning to `O=C(Cc1cccs1)Nc1nc2ccccc2s1`, the Ki in experiment [2] was > 6.31 µM (inactive); in experiment [3], 398 nM (active); in experiment [4], > 3.98 µM (inactive); in [5], 2 µM (active); in experiment [6], 3.16 µM (active); in [7], 1.58 µM (active).
